Several values for one entry are separate records, joined by “and”; a condition that tells them apart may be missing. Equal values may be shown once. After the bases stand the sugars from the 5' end (letter, count) and the backbone: PS all phosphorothioate, else s phosphorothioate and o phosphodiester by linkage. Methylation of C is not given here. e = 2'-O-(2-methoxyethyl) (MOE); k = constrained ethyl (cEt); d = 2'-deoxy (DNA)
Experiments:
DGAT2 = details: ASO
SOD1 = details: ASO

Sequence: AAAACAGGGTACAACTCTCT (sugars e5 d10 e5, PS)
- target mRNA inhibition (DGAT2; HepG2, 2.5 µM): 73% and 59%
- target mRNA inhibition (DGAT2; HepG2, 10 µM): 91% and 87%

Sequence: AAAACCAGTTACTCCACCTA (sugars e5 d10 e5, PS)
- target mRNA inhibition (DGAT2; HepG2, 0.12 µM): 0%

Sequence: AAAACTTAGGCATGCTTCCT (sugars e5 d10 e5, PS)
- target mRNA inhibition (DGAT2; HepG2, 2.5 µM): 53%
- target mRNA inhibition (DGAT2; HepG2, 10 µM): 83%

Sequence: AAAAGGAGTTTGTGTTTCCC (sugars e5 d10 e5, PS)
- target mRNA inhibition (DGAT2; HepG2, 2.5 µM): 84% and 86%
- target mRNA inhibition (DGAT2; HepG2, 10 µM): 92% and 95%

Sequence: AAACACCAGCCAAGTGAAGT (sugars e5 d10 e5, PS)
- target mRNA inhibition (DGAT2; HepG2, 0.12 µM): 9%

Sequence: AAAGCAAATAGTCTATGGTG (sugars e5 d10 e5, PS)
- target mRNA inhibition (DGAT2; HepG2, 0.12 µM): 46%

Sequence: AAAGTCTGACATGGTGC (sugars e3 d10 e4, PS)
- target mRNA inhibition (DGAT2; HepG2, 2.5 µM): 48%
- target mRNA inhibition (DGAT2; HepG2, 10 µM): 81%

Sequence: AAATCACAGAATTATCAGCA (sugars e5 d10 e5, PS)
- target mRNA inhibition (DGAT2; HepG2, 2.5 µM): 57%
- target mRNA inhibition (DGAT2; HepG2, 10 µM): 92%

Sequence: AACCCACAGACACCCATGAC (sugars e5 d10 e5, PS)
- target mRNA inhibition (DGAT2; HepG2, 0.12 µM): 4%

Sequence: AACTTAGGCATGCTTCCTCC (sugars e5 d10 e5, PS)
- target mRNA inhibition (DGAT2; HepG2, 2.5 µM): 44%
- target mRNA inhibition (DGAT2; HepG2, 10 µM): 89%

Sequence: AACTTCTTCTGGACCCATCG (sugars e5 d10 e5, PS)
- target mRNA inhibition (DGAT2; HepG2, 0.12 µM): 28%

Sequence: AAGATTCATAACTATATCTA (sugars e5 d10 e5, PS)
- target mRNA inhibition (DGAT2; HepG2, 0.12 µM): 6%

Sequence: AAGCCTCGGTGTCCTCT (sugars e3 d10 e4, PS)
- target mRNA inhibition (DGAT2; HepG2, 2.5 µM): 56% and 70%
- target mRNA inhibition (DGAT2; HepG2, 10 µM): 87% and 90%

Sequence: AAGGACAGAGGTTCAACATC (sugars e5 d10 e5, PS)
- target mRNA inhibition (DGAT2; HepG2, 2.5 µM): 7%
- target mRNA inhibition (DGAT2; HepG2, 10 µM): 67%

Sequence: AAGGGTATTCTGCTCATAAA (sugars e5 d10 e5, PS)
- target mRNA inhibition (DGAT2; HepG2, 2.5 µM): 48%
- target mRNA inhibition (DGAT2; HepG2, 10 µM): 88%

Sequence: AAGGTAAACTGAGGCCACCA (sugars e5 d10 e5, PS)
- target mRNA inhibition (DGAT2; HepG2, 0.12 µM): 37%

Sequence: AAGTGACAAAGTCTATCAGG (sugars e5 d10 e5, PS)
- target mRNA inhibition (DGAT2; HepG2, 2.5 µM): 61%
- target mRNA inhibition (DGAT2; HepG2, 10 µM): 87%

Sequence: AATAACCCACAGACACCCAT (sugars e5 d10 e5, PS)
- target mRNA inhibition (DGAT2; HepG2, 0.12 µM): 0%

Sequence: AATGTCACAAGTTCACAAAC (sugars e5 d10 e5, PS)
- target mRNA inhibition (DGAT2; HepG2, 0.12 µM): 4%

Sequence: AATTTCTTTTAAATAACCCA (sugars e5 d10 e5, PS)
- target mRNA inhibition (DGAT2; HepG2, 0.12 µM): 0%

Sequence: ACAAAGCCCTTGCGGTTCCG (sugars e5 d10 e5, PS)
- target mRNA inhibition (DGAT2; HepG2, 0.12 µM): 35%

Sequence: ACAACAGCAAATATACACCA (sugars e5 d10 e5, PS)
- target mRNA inhibition (DGAT2; HepG2, 2.5 µM): 87%
- target mRNA inhibition (DGAT2; HepG2, 10 µM): 56%

Sequence: ACACCAGGATCTCAGTCACT (sugars e5 d10 e5, PS)
- target mRNA inhibition (DGAT2; HepG2, 0.12 µM): 42%

Sequence: ACAGGACCCACTGGAGCACT (sugars e2 d13 e5, PS)
- target mRNA inhibition (DGAT2; HepG2, 0.12 µM): 68%

Sequence: ACAGTGGTGATGGGCTTGGA (sugars e5 d10 e5, PS)
- target mRNA inhibition (DGAT2; HepG2, 0.12 µM): 52%

Sequence: ACCACAGCGATAATCACACA (sugars e5 d10 e5, PS)
- target mRNA inhibition (DGAT2; HepG2, 2.5 µM): 54%
- target mRNA inhibition (DGAT2; HepG2, 10 µM): 89%

Sequence: ACCAGGGCCTCCATGTACAT (sugars e2 d13 e5, PS)
- target mRNA inhibition (DGAT2; HepG2, 0.12 µM): 50%

Sequence: ACCATAATCTGCACAGGTTC (sugars e5 d10 e5, PS)
- target mRNA inhibition (DGAT2; HepG2, 2.5 µM): 62%
- target mRNA inhibition (DGAT2; HepG2, 10 µM): 84%

Sequence: ACCATTTTCACAAGGAGAAG (sugars e5 d10 e5, PS)
- target mRNA inhibition (DGAT2; HepG2, 0.12 µM): 30%

Sequence: TTGGATTCTTTTAATAG (sugars e2 k2 d8 k2 e3, PS)
- target mRNA inhibition (SOD1; HepG2, 5 µM): 23%

Sequence: TTTATTCACAGGCTTGA (sugars e2 k2 d8 k2 e3, PS)
- target mRNA inhibition (SOD1; HepG2, 5 µM): 44%

Sequence: TTTATTGGGCGATCCCA (sugars e2 k2 d9 k2 e2, PS)
- target mRNA inhibition (SOD1; HepG2, 4 µM): 46%

Sequence: TTTATTGGGCGATCCCA (sugars e3 k2 d7 k2 e3, PS)
- target mRNA inhibition (SOD1; HepG2, 3 µM): 20%

Sequence: TTTCCACCTTTGCCCAA (sugars e3 k2 d7 k2 e3, PS)
- target mRNA inhibition (SOD1; HepG2, 3 µM): 78%

Sequence: TTTTAGTTTGAATTTGGATT (sugars e5 d10 e5, PS)
- target mRNA inhibition (SOD1; HepG2, 5 µM): 0%

Sequence: TTTTATTCACAGGCTTG (sugars e2 k2 d8 k2 e3, PS)
- target mRNA inhibition (SOD1; HepG2, 5 µM): 43%

Sequence: TTTTTTAGTTTGAATTTGGA (sugars e5 d10 e5, PS)
- target mRNA inhibition (SOD1; HepG2, 5 µM): 0%
